# From patent publication US10538555B2, “Macrocyclic inhibitors of the PD-1/PD-L1 and CD80(B7-1)/PD-L1 protein/protein interactions” (BRISTOL-MYERS SQUIBB COMPANY, priority 2014, dated 2020)
# *1 amine or outer side, *2 acyl side, *3 side chain or, on linkers, in order; H or OH if unused. Where a SMILES comes first, the peptide text is derived from it. Bridges are numbered along the chain shown (N, C = ends). [ ]: non-standard residue; d: D form. Trp(1-CH2COOH) = N[C@@H](Cc1cn(CC(=O)O)c2ccccc12)C(=O)O; Phe(3,4,5-F3) = N[C@@H](Cc1cc(F)c(F)c(F)c1)C(=O)O; NMePhe(4-F) = CN[C@@H](Cc1ccc(F)cc1)C(=O)O; d(cisHyp) = O=C(O)[C@H]1C[C@@H](O)CN1; NMeF = CN[C@@H](Cc1ccccc1)C(=O)O; X1 = O=C([C@H]1COCCN1[*:1])[*:2]; dHyp = O=C(O)[C@H]1C[C@H](O)CN1; NMeNle = CCCC[C@H](NC)C(=O)O; dPip = O=C(O)[C@H]1CCCCN1; Orn = NCCC[C@H](N)C(=O)O; Dab = NCC[C@H](N)C(=O)O; Dap = NC[C@H](N)C(=O)O
# Molecular target: T1, Human PD-L1/PD-1 (Homo sapiens, UniProt Q9NZQ7)
# T1 construct: TVMV protease cleavage site (C); made in house; host or cells: HEK293T cells
# T1 sequence (Q9NZQ7 with tags, fused parts or gaps): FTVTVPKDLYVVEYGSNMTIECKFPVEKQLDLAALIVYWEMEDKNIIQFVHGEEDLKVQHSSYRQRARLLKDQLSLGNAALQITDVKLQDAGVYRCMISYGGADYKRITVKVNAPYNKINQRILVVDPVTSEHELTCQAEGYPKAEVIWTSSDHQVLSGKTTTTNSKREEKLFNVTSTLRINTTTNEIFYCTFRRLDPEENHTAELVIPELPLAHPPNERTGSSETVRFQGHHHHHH
# Assay: HTRF Human PD-L1/PD-1 binding assay (PD-1-Ig/PD-L1-His)
# Conditions: PD-L1-His 10 nM, PD-1-Ig 20 nM; class symbol; read-out: HTRF Human PD-L1/PD-1 Binding Assay IC50 Range
# Summary of the method: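 Competition of macrocyclic peptides for PD-1/PD-L1 binding measured by HTRF in dPBS containing 0.1% BSA and 0.05% Tween-20. Compound and PD-L1-His (10 nM final) incubated 15 min before PD-1-Ig (20 nM final) and a further 15 min.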
row,IC50,SMILES
1,1 to 9.9 nM,"CCCC[C@H]1C(=O)N2CCC[C@@H]2C(=O)N[C@@H](CC(=O)O)C(=O)N[C@@H](C(C)C)C(=O)N(C)[C@@H](Cc2ccccc2)C(=O)N[C@@H](CC(=O)O)C(=O)N2CCCC[C@@H]2C(=O)N[C@@H](Cc2c[nH]c3ccccc23)C(=O)N[C@@H](Cc2ccc(O)cc2)C(=O)N[C@@H](CO)C(=O)N[C@H](C(=O)NCC(N)=O)CSCC(=O)N[C@@H](Cc2cc(F)c(F)c(F)c2)C(=O)N(C)[C@@H](Cc2ccc(F)cc2)C(=O)N1C [Example 10573] ({CH2CO}-[Phe(3,4,5-F3)][NMePhe(4-F)][NMeNle][dP]DV[NMeF]D[dPip]WYSCG-NH2; thioether N-13)"
2,1 to 9.9 nM,"CCCC[C@H]1C(=O)N2CCC[C@@H]2C(=O)N[C@@H](CC(=O)O)C(=O)N[C@@H](C(C)C)C(=O)N(C)[C@@H](Cc2ccccc2)C(=O)N[C@@H](CC(=O)O)C(=O)N2CCCC[C@@H]2C(=O)N[C@@H](Cc2c[nH]c3ccccc23)C(=O)N[C@@H](Cc2ccc(O)cc2)C(=O)N[C@@H](CC(N)=O)C(=O)N[C@H](C(=O)NCC(N)=O)CSCC(=O)N[C@@H](Cc2cc(F)c(F)c(F)c2)C(=O)N(C)[C@@H](Cc2ccc(F)cc2)C(=O)N1C [Example 10574] ({CH2CO}-[Phe(3,4,5-F3)][NMePhe(4-F)][NMeNle][dP]DV[NMeF]D[dPip]WYNCG-NH2; thioether N-13)"
3,1 to 9.9 nM,"CCCC[C@H]1C(=O)N2CCC[C@@H]2C(=O)N[C@@H](CCC(=O)O)C(=O)N[C@@H](C(C)C)C(=O)N(C)[C@@H](Cc2ccccc2)C(=O)N[C@@H](CCC(=O)O)C(=O)N2CCCC[C@@H]2C(=O)N[C@@H](Cc2c[nH]c3ccccc23)C(=O)N[C@@H](Cc2ccc(O)cc2)C(=O)N[C@@H](CC(C)C)C(=O)N[C@H](C(=O)NCC(N)=O)CSCC(=O)N[C@@H](Cc2cc(F)c(F)c(F)c2)C(=O)N(C)[C@@H](Cc2ccc(F)cc2)C(=O)N1C [Example 10576] ({CH2CO}-[Phe(3,4,5-F3)][NMePhe(4-F)][NMeNle][dP]EV[NMeF]E[dPip]WYLCG-NH2; thioether N-13)"
4,1 to 9.9 nM,"CCCC[C@H]1C(=O)N2CCC[C@@H]2C(=O)N[C@@H](CCN)C(=O)N[C@@H](C(C)C)C(=O)N(C)[C@@H](Cc2ccccc2)C(=O)N[C@@H](CCC(=O)O)C(=O)N2CCCC[C@@H]2C(=O)N[C@@H](Cc2c[nH]c3ccccc23)C(=O)N[C@@H](Cc2ccc(O)cc2)C(=O)N[C@@H](CC(C)C)C(=O)N[C@H](C(=O)NCC(N)=O)CSCC(=O)N[C@@H](Cc2cc(F)c(F)c(F)c2)C(=O)N(C)[C@@H](Cc2ccc(F)cc2)C(=O)N1C [Example 10577] ({CH2CO}-[Phe(3,4,5-F3)][NMePhe(4-F)][NMeNle][dP][Dab]V[NMeF]E[dPip]WYLCG-NH2; thioether N-13)"
5,1 to 9.9 nM,"CCCC[C@H]1C(=O)N2CCC[C@@H]2C(=O)N[C@@H](CN)C(=O)N[C@@H](C(C)C)C(=O)N(C)[C@@H](Cc2ccccc2)C(=O)N[C@@H](CCC(=O)O)C(=O)N2CCCC[C@@H]2C(=O)N[C@@H](Cc2c[nH]c3ccccc23)C(=O)N[C@@H](Cc2ccc(O)cc2)C(=O)N[C@@H](CC(C)C)C(=O)N[C@H](C(=O)NCC(N)=O)CSCC(=O)N[C@@H](Cc2cc(F)c(F)c(F)c2)C(=O)N(C)[C@@H](Cc2ccc(F)cc2)C(=O)N1C [Example 10578] ({CH2CO}-[Phe(3,4,5-F3)][NMePhe(4-F)][NMeNle][dP][Dap]V[NMeF]E[dPip]WYLCG-NH2; thioether N-13)"
6,1 to 9.9 nM,"CCCC[C@H]1C(=O)N2CCC[C@@H]2C(=O)N[C@@H](CC(N)=O)C(=O)N[C@@H](C(C)C)C(=O)N(C)[C@@H](Cc2ccccc2)C(=O)N[C@@H](CCC(=O)O)C(=O)N2CCCC[C@@H]2C(=O)N[C@@H](Cc2c[nH]c3ccccc23)C(=O)N[C@@H](Cc2ccc(O)cc2)C(=O)N[C@@H](CC(C)C)C(=O)N[C@H](C(=O)NCC(N)=O)CSCC(=O)N[C@@H](Cc2cc(F)c(F)c(F)c2)C(=O)N(C)[C@@H](Cc2ccc(F)cc2)C(=O)N1C [Example 10579] ({CH2CO}-[Phe(3,4,5-F3)][NMePhe(4-F)][NMeNle][dP]NV[NMeF]E[dPip]WYLCG-NH2; thioether N-13)"
7,1 to 9.9 nM,"CCCC[C@H]1C(=O)N2CCC[C@@H]2C(=O)N[C@@H](CCC(=O)O)C(=O)N[C@@H](C(C)C)C(=O)N(C)[C@@H](Cc2ccccc2)C(=O)N[C@@H](CC(=O)O)C(=O)N2CCCC[C@@H]2C(=O)N[C@@H](Cc2c[nH]c3ccccc23)C(=O)N[C@@H](Cc2ccc(O)cc2)C(=O)N[C@@H](CC(C)C)C(=O)N[C@H](C(=O)NCC(N)=O)CSCC(=O)N[C@@H](Cc2cc(F)c(F)c(F)c2)C(=O)N(C)[C@@H](Cc2ccc(F)cc2)C(=O)N1C [Example 10580] ({CH2CO}-[Phe(3,4,5-F3)][NMePhe(4-F)][NMeNle][dP]EV[NMeF]D[dPip]WYLCG-NH2; thioether N-13)"
8,10 to 99.9 nM,"CCCC[C@H]1C(=O)N2CCC[C@@H]2C(=O)N[C@@H](CCN)C(=O)N[C@@H](C(C)C)C(=O)N(C)[C@@H](Cc2ccccc2)C(=O)N[C@@H](CC(=O)O)C(=O)N2CCCC[C@@H]2C(=O)N[C@@H](Cc2c[nH]c3ccccc23)C(=O)N[C@@H](Cc2ccc(O)cc2)C(=O)N[C@@H](CC(C)C)C(=O)N[C@H](C(=O)NCC(N)=O)CSCC(=O)N[C@@H](Cc2cc(F)c(F)c(F)c2)C(=O)N(C)[C@@H](Cc2ccc(F)cc2)C(=O)N1C [Example 10581] ({CH2CO}-[Phe(3,4,5-F3)][NMePhe(4-F)][NMeNle][dP][Dab]V[NMeF]D[dPip]WYLCG-NH2; thioether N-13)"
9,1 to 9.9 nM,"CCCC[C@H]1C(=O)N2CCC[C@@H]2C(=O)N[C@@H](CN)C(=O)N[C@@H](C(C)C)C(=O)N(C)[C@@H](Cc2ccccc2)C(=O)N[C@@H](CC(=O)O)C(=O)N2CCCC[C@@H]2C(=O)N[C@@H](Cc2c[nH]c3ccccc23)C(=O)N[C@@H](Cc2ccc(O)cc2)C(=O)N[C@@H](CC(C)C)C(=O)N[C@H](C(=O)NCC(N)=O)CSCC(=O)N[C@@H](Cc2cc(F)c(F)c(F)c2)C(=O)N(C)[C@@H](Cc2ccc(F)cc2)C(=O)N1C [Example 10582] ({CH2CO}-[Phe(3,4,5-F3)][NMePhe(4-F)][NMeNle][dP][Dap]V[NMeF]D[dPip]WYLCG-NH2; thioether N-13)"
10,1 to 9.9 nM,"CCCC[C@H]1C(=O)N2CCC[C@@H]2C(=O)N[C@@H](CO)C(=O)N[C@@H](C(C)C)C(=O)N(C)[C@@H](Cc2ccccc2)C(=O)N[C@@H](CC(=O)O)C(=O)N2CCCC[C@@H]2C(=O)N[C@@H](Cc2c[nH]c3ccccc23)C(=O)N[C@@H](Cc2ccc(O)cc2)C(=O)N[C@@H](CC(C)C)C(=O)N[C@H](C(=O)NCC(N)=O)CSCC(=O)N[C@@H](Cc2cc(F)c(F)c(F)c2)C(=O)N(C)[C@@H](Cc2ccc(F)cc2)C(=O)N1C [Example 10583] ({CH2CO}-[Phe(3,4,5-F3)][NMePhe(4-F)][NMeNle][dP]SV[NMeF]D[dPip]WYLCG-NH2; thioether N-13)"
11,1 to 9.9 nM,"CCCC[C@H]1C(=O)N2CCC[C@@H]2C(=O)N[C@@H](CC(N)=O)C(=O)N[C@@H](C(C)C)C(=O)N(C)[C@@H](Cc2ccccc2)C(=O)N[C@@H](CC(=O)O)C(=O)N2CCCC[C@@H]2C(=O)N[C@@H](Cc2c[nH]c3ccccc23)C(=O)N[C@@H](Cc2ccc(O)cc2)C(=O)N[C@@H](CC(C)C)C(=O)N[C@H](C(=O)NCC(N)=O)CSCC(=O)N[C@@H](Cc2cc(F)c(F)c(F)c2)C(=O)N(C)[C@@H](Cc2ccc(F)cc2)C(=O)N1C [Example 10584] ({CH2CO}-[Phe(3,4,5-F3)][NMePhe(4-F)][NMeNle][dP]NV[NMeF]D[dPip]WYLCG-NH2; thioether N-13)"
12,1 to 9.9 nM,"CCCC[C@H]1C(=O)N2C[C@@H](O)C[C@@H]2C(=O)N[C@@H](CC(=O)O)C(=O)N[C@@H](C(C)C)C(=O)N(C)[C@@H](Cc2ccccc2)C(=O)N[C@@H](CCC(=O)O)C(=O)N2CCCC[C@@H]2C(=O)N[C@@H](Cc2cn(CC(=O)O)c3ccccc23)C(=O)N[C@@H](Cc2ccc(O)cc2)C(=O)N[C@@H](CCN)C(=O)N[C@H](C(=O)NCC(N)=O)CSCC(=O)N[C@@H](Cc2cc(F)c(F)c(F)c2)C(=O)N(C)[C@@H](Cc2ccccc2)C(=O)N1C [Example 10585] ({CH2CO}-[Phe(3,4,5-F3)][NMeF][NMeNle][dHyp]DV[NMeF]E[dPip][Trp(1-CH2COOH)]Y[Dab]CG-NH2; thioether N-13)"
13,1 to 9.9 nM,"CCCC[C@H]1C(=O)N2C[C@@H](O)C[C@@H]2C(=O)N[C@@H](CC(=O)O)C(=O)N[C@@H](C(C)C)C(=O)N(C)[C@@H](Cc2ccccc2)C(=O)N[C@@H](CCC(=O)O)C(=O)N2CCCC[C@@H]2C(=O)N[C@@H](Cc2cn(CC(=O)O)c3ccccc23)C(=O)N[C@@H](Cc2ccc(O)cc2)C(=O)N[C@@H](CC(C)C)C(=O)N[C@H](C(=O)NCC(N)=O)CSCC(=O)N[C@@H](Cc2cc(F)c(F)c(F)c2)C(=O)N(C)[C@@H](Cc2ccccc2)C(=O)N1C [Example 10586] ({CH2CO}-[Phe(3,4,5-F3)][NMeF][NMeNle][dHyp]DV[NMeF]E[dPip][Trp(1-CH2COOH)]YLCG-NH2; thioether N-13)"
14,1 to 9.9 nM,"CCCC[C@H]1C(=O)N2CCC[C@@H]2C(=O)N[C@@H](CO)C(=O)N[C@@H](C(C)C)C(=O)N(C)[C@@H](Cc2ccccc2)C(=O)N[C@@H](CCC(=O)O)C(=O)N2CCCC[C@@H]2C(=O)N[C@@H](Cc2c[nH]c3ccccc23)C(=O)N[C@@H](Cc2ccc(O)cc2)C(=O)N[C@@H](CC(C)C)C(=O)N[C@H](C(=O)NCC(N)=O)CSCC(=O)N[C@@H](Cc2cc(F)c(F)c(F)c2)C(=O)N(C)[C@@H](Cc2ccc(F)cc2)C(=O)N1C [Example 10587] ({CH2CO}-[Phe(3,4,5-F3)][NMePhe(4-F)][NMeNle][dP]SV[NMeF]E[dPip]WYLCG-NH2; thioether N-13)"
15,1 to 9.9 nM,"CCCC[C@H]1C(=O)N2C[C@H](O)C[C@@H]2C(=O)N[C@@H](CC(=O)O)C(=O)N[C@@H](C(C)C)C(=O)N(C)[C@@H](Cc2ccccc2)C(=O)N[C@@H](CCC(=O)O)C(=O)N2CCOC[C@@H]2C(=O)N[C@@H](Cc2c[nH]c3ccccc23)C(=O)N[C@@H](Cc2ccc(O)cc2)C(=O)N[C@@H](CCCN)C(=O)N[C@H](C(=O)NCC(N)=O)CSCC(=O)N[C@@H](Cc2cc(F)c(F)c(F)c2)C(=O)N(C)[C@@H](Cc2ccc(F)cc2)C(=O)N1C [Example 10590] ({CH2CO}-[Phe(3,4,5-F3)][NMePhe(4-F)][NMeNle][d(cisHyp)]DV[NMeF]E[X1]WY[Orn]CG-NH2; thioether N-13)"
